What was measured:
[1] = Tolerability in CD1 mice: kidney function, BUN (Example 37); conditions: plasma, 50 mg/kg s.c. twice per week for 6 weeks
[2] = Tolerability in CD1 mice: body weight and organ weights (Example 37); conditions: 50 mg/kg s.c. twice per week for 6 weeks
Protocol: Body weight was measured at the onset of the study and subsequently twice per week. The body weights of the mice are presented in Table 80 and are expressed increase in grams over the PBS control weight taken before the start of treatment. Liver, spleen, and kidney weights were measured at the end of the study, and are also presented in Table 80 as percentage of the body weight.

[3] = Tolerability in CD1 mice: kidney function, BUN (Example 41); conditions: 50 mg/kg s.c. twice per week for 6 weeks, plasma
blood coagulation = assay: PT and aPTT assay in cynomolgus monkeys (Example 45); format: in vivo; conditions: platelet poor plasma
Protocol: Groups, each consisting of two male and three female monkeys, were injected subcutaneously with ISIS 416838, ISIS 416850, ISIS 416858, ISIS 416864, or ISIS 417002 in escalating doses. Antisense oligonucleotide was administered to the monkeys at 5 mg/kg three times per a week for week 1; 5 mg/kg twice per week for weeks 2 and 3; 10 mg/kg three times per week for week 4; 10 mg/kg twice per week for weeks 5 and 6; 25 mg/kg three times per week for week 7; and 25 mg/kg twice per week for weeks 8, 9, 10, 11, and 12. One control group, consisting of two male and three female monkeys, was injected subcutaneously with PBS according to the same dosing regimen. An additional experimental group, consisting of two male and three female monkeys, was injected subcutaneously with ISIS 416850 in a chronic, lower dose regimen. Antisense oligonucleotide was administered to the monkeys at 5 mg/kg three times per week for week 1; 5 mg/kg twice per week for week 2 and 3; 10 mg/kg three times per week for week 4; and 10 mg/kg twice per week for weeks 5 to 12. Body weights were measured weekly. Blood samples were collected 14 days and 5 days before the start of treatment and subsequently once per week for Factor 11 protein activity analysis in plasma, fibrinogen measurement, PT and aPTT measurements, bleeding times, and measurement of various hematologic factors. On day 85, the monkeys were euthanized by exsanguination while under deep anesthesia, and organs harvested for further analysis.
Blood samples were collected in tubes containing sodium citrate. PT and aPTT were determined in duplicate with an ACL 9000 coagulation instrument (Instrumentation Laboratory, Italy). The results were interpolated on a standard curve of serial dilutions citrated control monkey plasma tested to give a reported result in percent normal.
Prothrombin Time (PT) and Activated Partial Thromboplastin Time (aPTT) were measured using platelet poor plasma (PPP) from monkeys treated with ISIS oligonucleotides. PT and aPTT values are provided in Tables 116 and 117 and are reported as International Normalized Ratio (INR) values. INR values for PT and aPTT were determined by dividing the PT or aPTT value for each experimental group by the PT or aPTT for the PBS treated group. This ratio was then raised to the power of the International Sensitivity Index (ISI) of the tissue factor used. The ISIS oligonucleotide, ISIS 416850, given with the chronic dose regimen is distinguished from the other oligonucleotides with an asterisk (*).

[4] = day 8, chronic dose regimen (*)
[5] = day 15, chronic dose regimen (*)
[6] = day 15, escalating dose regimen
[7] = day 22, chronic dose regimen (*)
[8] = day 22, escalating dose regimen
[9] = day 29, chronic dose regimen (*)
[10] = day 29, escalating dose regimen
[11] = day 36, chronic dose regimen (*)
[12] = day 36, escalating dose regimen
[13] = day 43, chronic dose regimen (*)
[14] = day 43, escalating dose regimen
[15] = day 50, chronic dose regimen (*)
[16] = day 50, escalating dose regimen
[17] = day 57, escalating dose regimen
[18] = day 64, escalating dose regimen
[19] = day 71, escalating dose regimen
[20] = day 78, escalating dose regimen
[21] = day 85, escalating dose regimen
[22] = day −5, chronic dose regimen (*)
[23] = day −5, escalating dose regimen
[24] = day −14, chronic dose regimen (*)
[25] = day −14, escalating dose regimen

“ISIS 416850: MOE gapmer, nucleobases 1275 to 1318 of SEQ ID NO: 1 (Table 8) (antisense TGCACAGTTTCTGGCAGGCC; MOE gapmer, wing and gap sizes not given here)” gave a BUN [1] of 24 mg/dL, a body weight ([2]; increase in grams over the PBS control weight taken before the start of treatment) of 12 g and a Kidney weight ([2]; percentage of the body weight) of 1.6%. For the same substance, the Liver weight ([2]; percentage of the body weight) was 6%, the Spleen weight ([2]; percentage of the body weight) was 0.4% and the BUN [3] was 28 mg/dL. For the same substance, the “PT ratio (INR)” value (blood coagulation; [4]) was 1.03, the “aPTT ratio (INR)” value (blood coagulation; [4]) was 1.12 and the “PT ratio (INR)” value (blood coagulation; day 8, escalating dose regimen) was 1.00. The “aPTT ratio (INR)” value (blood coagulation; day 8, escalating dose regimen) was 1.05, the “PT ratio (INR)” value (blood coagulation; [5]) was 1.06 and the “aPTT ratio (INR)” value (blood coagulation; [5]) was 1.07. The “PT ratio (INR)” value (blood coagulation; [6]) was 1.02, the “aPTT ratio (INR)” value (blood coagulation; [6]) was 1.05 and the “PT ratio (INR)” value (blood coagulation; [7]) was 1.06. For the same substance, the “aPTT ratio (INR)” value (blood coagulation; [7]) was 1.21, the “PT ratio (INR)” value (blood coagulation; [8]) was 1.02 and the “aPTT ratio (INR)” value (blood coagulation; [8]) was 1.13. The “PT ratio (INR)” value (blood coagulation; [9]) was 1.00, the “aPTT ratio (INR)” value (blood coagulation; [9]) was 1.26 and the “PT ratio (INR)” value (blood coagulation; [10]) was 1.03. For the same substance, the “aPTT ratio (INR)” value (blood coagulation; [10]) was 1.13, the “PT ratio (INR)” value (blood coagulation; [11]) was 1.06 and the “aPTT ratio (INR)” value (blood coagulation; [11]) was 1.34. The “PT ratio (INR)” value (blood coagulation; [12]) was 1.02, the “aPTT ratio (INR)” value (blood coagulation; [12]) was 1.26 and the “PT ratio (INR)” value (blood coagulation; [13]) was 1.02. For the same substance, the “aPTT ratio (INR)” value (blood coagulation; [13]) was 1.22, the “PT ratio (INR)” value (blood coagulation; [14]) was 1.01 and the “aPTT ratio (INR)” value (blood coagulation; [14]) was 1.17. The “PT ratio (INR)” value (blood coagulation; [15]) was 0.98, the “aPTT ratio (INR)” value (blood coagulation; [15]) was 1.35 and the “PT ratio (INR)” value (blood coagulation; [16]) was 1.02. The “aPTT ratio (INR)” value (blood coagulation; [16]) was 1.68, the “PT ratio (INR)” value (blood coagulation; [17]) was 1.04 and the “aPTT ratio (INR)” value (blood coagulation; [17]) was 1.59. For the same substance, the “PT ratio (INR)” value (blood coagulation; [18]) was 1.03, the “aPTT ratio (INR)” value (blood coagulation; [18]) was 1.64 and the “PT ratio (INR)” value (blood coagulation; [19]) was 1.03. For the same substance, the “aPTT ratio (INR)” value (blood coagulation; [19]) was 1.76, the “PT ratio (INR)” value (blood coagulation; [20]) was 1.05 and the “aPTT ratio (INR)” value (blood coagulation; [20]) was 1.88. The “PT ratio (INR)” value (blood coagulation; [21]) was 1.04, the “aPTT ratio (INR)” value (blood coagulation; [21]) was 1.99 and the “PT ratio (INR)” value (blood coagulation; [22]) was 1.00. The “aPTT ratio (INR)” value (blood coagulation; [22]) was 1.00, the “PT ratio (INR)” value (blood coagulation; [23]) was 1.00 and the “aPTT ratio (INR)” value (blood coagulation; [23]) was 1.00. For the same substance, the “PT ratio (INR)” value (blood coagulation; [24]) was 1.00, the “aPTT ratio (INR)” value (blood coagulation; [24]) was 1.00 and the “PT ratio (INR)” value (blood coagulation; [25]) was 1.00. For the same substance, the “aPTT ratio (INR)” value (blood coagulation; [25]) was 1.00.

From patent publication US20230263822A1, “MODULATION OF FACTOR 11 EXPRESSION” (Ionis Pharmaceuticals, Inc., priority 2008, published 2023)
